Results taken from US5447957A, “Anti-inflammatory compounds” (SmithKline Beecham Corp., priority 1994, dated 1995).
Like-named read-outs stand apart in the source and are kept apart here. One block for each molecule: values may come before it.

How the values were obtained:
CoA-IT = test: Assay (b): CoA-IT activity in U937 cell microsomes; assay type: biochemical, human; details: for inhibition of CoA-IT activity in the microsomal CoA-IT assay: generally at 50 μM or less
From the text: Assay (b): CoA-IT Activity
The following is a method to measure CoA-IT activity and the effects of compounds on CoA-IT activity. The assay is based upon mixing cellular material containing CoA-IT activity with a stable lyso phospholipid such as […] and measuring the production of phospholipid product such as […] occurring in the absence of added CoA or CoA-fatty acids.
Any inflammatory cell that contains high levels of CoA-IT activity can be used, such as neutrophils, macrophages or cell lines such as U937 cells. […] Cells were grown without differentiation (basal state) by any agent, such as dimethyl sulfoxide. As used herein, "inflammatory cells" include, but are not limited to neutrophils, macrophages, monocytes, lymphocytes, eosinophils, basophils, and mast cells.
Microsomes were prepared using standard techniques. In this case, cells were washed with a buffer of 250 mM sucrose, 10 mM Tris, 1 mM EGTA, 1 mM MgCl2, pH 7.4 and ruptured by N2 cavitation (750 psi, 10 minutes). The ruptured cells were centrifuged 1000× g, 5 minutes. The resulting supernatant was centrifuged at 20,000×g,~20 minutes. Microsomes were prepared from this supernatant by centrifugation at 100,000× g, 60 minutes. The resulting pellet was washed once with assay buffer (150 mM NaCl, 10 mM Na2 KPO4, 1 mM EGTA, pH 7.4), recentrifuged and the pellet resuspended in assay buffer (4-20 mg protein/ml) and was stored at -80° C. until assayed.
CoA-IT activity was measured in 1.5 ml centrifuge tubes in a total volume of 100 ul. Microsomes were diluted in assay buffer to the desired protein concentration (6-20 ug/tube). The reaction was initiated by addition of [3H] 1-alkyl-2-lyso-sn-glycero-3-phosphocholine (GPC)(~0.1 uCi/tube) and 1 μM final cold 1-alkyl-2-lyso-GPC in assay buffer with 0.25 mg/ml fatty acid-poor bovine serumalbumin (BSA) (Calbiochem, La Jolla, Calif.). [3H]1-alkyl-2-lyso-GPC, approximately 50 Ci/mmol, was from NEN-Dupont (Boston, Mass.) and cold 1-alkyl-2-lyso-GPC was from Biomol (Plymouth Meeting, Penn.). Microsomes were pretreated with desired agents for the desired time (10 minutes) before the addition of [3H]1-alkyl-2-lyso-GPC. The reaction was run for the desired time (10 minutes) at 37° C. The reaction was stopped and the lipids extracted by addition of 100 ul of chloroform:methanol (1:2, v/v) followed by 100 ul of chloroform and 100 ul of 1M KCI. The samples were vortexed and centrifuged at high speed in a microfuge for 2-3 minutes. An aliquot of the chloroform-extracted materials were separated, usually by TLC in chloroform/methanol/acetic acid/water (50:25:8:4, v/v), visualized by radioscanning (Bioscan) and the product, [3H] 1-alkyl-2-acyl-GPC, was scraped and quantified by liquid scintillation spectroscopy. […] Other methods can be used to separate substrate from product, including but not limited to column chromatography, affinity chromatography and post reaction derivitization.

human monocytes = test: Assay (f): stimulated eicosanoid (PGE2, LTC4) release by human monocytes; assay type: cell-based; details: Monocyte, 0.25 h, A23187 1 μM, 15 min
Procedure: Assay (f): Measurement of stimulated eicosanoid release by human monocytes.
Leukocyte-rich leukopaks obtained from Biological Specialties (Lansdale, Pa.) were collected from male volunteers who were not taking anti-inflammatory drugs. Leukopaks were centrifuged (90× g for 15 min) twice to remove the platelet-rich plasma. The cell pellet was washed by centrifugation and resuspended in HBSS without Ca^2+ or Mg^2+. Histopaque 1077 was layered under the cell suspension and centrifuged at 400× g for 30 min to obtain the buffy coat. The interfacial buffy coat, containing monocytes and lymphocytes, was removed and saved. The buffy coat was washed twice with HBSS without Ca^2+ or Mg^2+ by centrifugation. The cell pellet (4-6×10^8 cells/30 mls) was resuspended in iso-osmotic media (RPMI-1640, 10% heat inactivated fetal bovine serum (FBS), 0.2 mM L-glutamine, 2.5 mM HEPES) and layered over an equal volume of 46% Percol mixture (10X PBS/Percol; 9.25/0.75) and 54% iso-osmotic media and centrifuged for 30 min at 1000× g (Marshall and Roshak, Biochem. Cell Biol. 71: 331-339, 1993). The monocyte population located at the interface of the Percoll gradient was removed and washed twice in HBSS without Ca^2+ or Mg^2+.
Monocytes (5×10^6 /ml) were incubated as a suspension in serum-free RPMI- 1640 medium containing the vehicle DMSO (<1%) or drug for 30 min at […] after which vehicle or stimuli was added for the indicated time. The stimulating agent is solubilized in DMSO and appropriate vehicle controls were included in all experiments. The amount of stimuli was chosen from the linear portion of a concentration versus product curve usually representing 60-80% maximal stimulation over the indicated incubation time at 37° C. (A23187, 1 μM,(15 min). The reaction was terminated by reduction of pH through addition of citric acid and centrifugation (10 min, 400× g, 4° C.). Cell viability was monitored before and after experiments using trypan blue exclusion. The cell-free media was decanted and stored at -70° C. until analyzed. Prostaglandin E2 and LTC4 were directly measured in cell-free media using enzyme immunoassay (EIA) kits purchased from Caymen Chemical Co. (Ann Arbor, Mich.). Sample or standard dilutions were made with appropriate media and analyzed in triplicate. Results were obtained by extrapolation from a standard curve prepared in the media and expressed as pg or ng/ml of sample.

[1] = tested on: Arachidonic acid induced ear inflammation; test: Assay (h): Arachidonic acid induced ear inflammation (ear edema and MPO); assay type: in vivo, mouse; details: topical; doses dexamethasone 0.2, scalaradial 0.1, WY 50,295 0.3 (unit not given)
Procedure: (§1) Male Balb/c inbred mice were obtained from Charle River Breeding Laboratories (Kingston, N.Y.). Within a single experiment mice (22-25 g) were age-matched. These in vivo experiments typically involved use of 5-6 animals/group.
On the day of the assay, partially thawed ear tissues were minced and then homogenized (10% w/v) with a Tissumizer homogenizer (Tekmar Co.) in 50 mM phosphate buffer (pH 6) containing 0.5% HTAB. The tissue homogenates were taken through three cycles of freeze-thaw, followed by brief sonication (10 sec). The method of Bradley et al. was used with modifications as described. […] Supernatant MPO activity was quantified kinetically (change in absorbance measured over 3 min, sampled at 15-sec intervals) using a Beckman DU-7 spectrophotometer and a Kinetics Analysis package (Beckman Instruments, Inc.). One unit of MPO activity is defined as that degrading one micromole of peroxide per minute at 25° C.
Arachidonic acid is dissolved in acetone (1 mg/ear) to the left ear of BALB/c male mice. The thickness of both ears was measured with a constant pressure thickness guage 1 hour after treatment and the data expressed as the change in thickness between treated and untreated ears. Test compounds or vehicle are given at the time of AA applciation. The inflammatory cell infiltration is measured by MPO activity as described above in the TPA ear edema assay. After the edema measurements are made, the inflamed ears are removed and assayed for MPO activity.

[2] = tested on: TPA-induced Mouse Ear Inflammation; test: Assay (g): TPA-induced Mouse Ear Inflammation (ear edema and MPO); assay type: in vivo; details: topical; doses dexamethasone 0.2, scalaradial 0.1, WY 50,295 0.3 (unit not given)
From the text: The ability of compounds that inhibit CoA-IT and/or PLA2 to affect in vivo inflammatory responses may be assessed. Inflammatory responses are induced in the mouse ear by the topical application of a pro-inflammatory agent, such as 12-0-tetradecanoylphorbol 13-acetate (assay g). This produces an edematous response, as measured by increases in ear thickness, as well as increased inflammatory cellular infiltrate, as measured by increases in myeloperoxidase activity (as described in the methods). To further validate the mechanism of action inflammation induced by the direct adminstration of arachidonic acid can be used. In this case compounds altering arachidonic acid mobilization or liberation should be with our effect.
as §1
TPA (12-0-tetradecanoylphorbol 13-acetate) (Sigma Chemical Company) in acetone ([…]) was applied to the inner and outer surfaces of the left ear of BALB/c male mice. The thickness of both ears was then measured with a dial micrometer (Mitutoyo, Japan) at both 2 and 4 hours after treatment, and the data expressed as the change in thickness (10^-3 cm) between treated and untreated ears. […] After measuring the edema, the inflammed left ears were removed and stored at -70° C. until they were assayed for MPO (myeloperoxidase) activity where appropriate.
On the day of the assay, partially thawed ear tissues were minced and then homogenized (10% w/v) with a Tissumizer homogenizer (Tekmar Co.) in 50 mM phosphate buffer (pH 6) containing 0.5% HTAB. The tissue homogenates were taken through three cycles of freeze-thaw, followed by brief sonication (10 sec). The method of Bradley et al. was used with modifications as described. The appearance of a colored product from the MPO-dependent reaction of o-dianisidine (0.167 mg/ml; Sigma) and hydrogen peroxide (0.0005%; Sigma) was measured spectrophotometrically at 460 nm. Supernatant MPO activity was quantified kinetically (change in absorbance measured over 3 min, sampled at 15-sec intervals) using a Beckman DU-7 spectrophotometer and a Kinetics Analysis package (Beckman Instruments, Inc.). One unit of MPO activity is defined as that degrading one micromole of peroxide per minute at 25° C.
Statistical analysis was done using Student's "t" test. The ED50 are values which cause a 50% inhibition of the inflammatory response and are calculated by regression analysis of the dose response data.

inhibition of CoA-IT activity in the microsomal CoA-IT assay (CoA-IT): inhibit CoA-IT activity
SMILES: CCCCCCCCNC(=O)Nc1cc(C(F)(F)F)ccc1Oc1ccccc1C(=O)O [2-[2-[3-(Octyl)ureido]-4-trifluoromethylphenoxy]benzoic acid]

SMILES: O=S1(=O)CCn2c1nc(-c1ccc(F)cc1)c2-c1ccncc1 [6-(4'-Fluorophenyl)-5-(4-pyridyl)2,3-dihydroimidzo-[2,1-b]thiazole-dioxide]
effect on CoA-IT activity (CoA-IT; at concentrations up to 100 μM): no effect

SMILES: Fc1ccc(-c2nc3n(c2-c2ccncc2)CCS3)cc1 [6-(4'-Fluorophenyl)-5-(4-pyridyl)-2,3-dihydroimidzo-[2,1-b]thiazole]
effect on CoA-IT activity (CoA-IT; at concentrations up to 100 μM): no effect

SMILES: Cc1cc(C(C)(C)C)c(O)c(C(C)(C)C)c1 [BHT]
effect on CoA-IT activity (CoA-IT; at concentrations up to 100 μM): no effect

SMILES: CN(C)CCC=C1c2ccccc2COc2ccccc21 [Doxepine]
effect on CoA-IT activity (CoA-IT; at concentrations up to 100 μM): did not inhibit

IC50 (human monocytes; read-out: IC50 for LTC4 release): 300 nM | IC50 (human monocytes; read-out: IC50 of PGE2 release): > 3000 nM | inhibition of CoA-IT activity in the microsomal CoA-IT assay (CoA-IT): inhibit CoA-IT activity
SMILES: O=C(Nc1ccc(Br)cc1)Nc1cc(C(F)(F)F)ccc1Oc1ccccc1C(=O)O [Example 1, 2-[2-[3-(4-Bromophenyl)ureido]-4-(trifluoromethyl)phenoxy]benzoic acid]

inhibition of CoA-IT activity in the microsomal CoA-IT assay (CoA-IT): inhibit CoA-IT activity
SMILES: CC(C)(C)CC(C)(C)c1ccc(Oc2ccc(C(F)(F)F)cc2NC(=O)Nc2cc(C(F)(F)F)cc(C(F)(F)F)c2)c(C(=O)O)c1 [Example 4, 2-[2-[3-[3,5-Bis (trifluoromethyl)phenyl]ureido]-4-trifluoromethylphenoxy]-5-(1,1,3,3-tetramethylbutyl)benzoic acid]

inhibition of CoA-IT activity in the microsomal CoA-IT assay (CoA-IT): inhibit CoA-IT activity
SMILES: CCC(C)(C)c1ccc(Oc2ccc(C(F)(F)F)cc2NC(=O)Nc2cc(C(F)(F)F)cc(C(F)(F)F)c2)c(C(=O)O)c1 [Example 5, 2-[2-[3-[3,5-Bis (trifluoromethyl)phenyl]ureido]-4-trifluoromethylphenoxy]-5-(1,1,-dimethylpropyl)benzoic acid]

inhibition of CoA-IT activity in the microsomal CoA-IT assay (CoA-IT): inhibit CoA-IT activity
SMILES: COC(=O)c1ccccc1Oc1ccc(C(F)(F)F)cc1NC(=O)Nc1cc(C(F)(F)F)cc(C(F)(F)F)c1 [Example 8, Methyl 2-[2-[3-[3,5-Bis(trifluoromethyl)phenyl]ureido]-4-trifluoromethylphenoxy]benzoate]

SMILES: C[C@H](C(=O)O)c1ccc2cc(OCc3ccc4ccccc4n3)ccc2c1 [WY 50,295]
AA % change in edema [1]: -50% | change in MPO for AA [1]: -90 | TPA % change in edema [2]: -18%

SMILES: COc1cccc2c1cc([N+](=O)[O-])c1c(C(=O)O)cc3c(c12)OCO3 [aristolochic acid]
effect on CoA-IT activity (CoA-IT; at concentrations up to 500 μM): no effect

SMILES: C[C@@H]1C[C@H]2[C@@H]3CCC4=CC(=O)C=C[C@]4(C)[C@@]3(F)[C@@H](O)C[C@]2(C)[C@@]1(O)C(=O)CO [dexamethasone]
AA % change in edema [1]: -10% | change in MPO for AA [1]: 0 | TPA % change in edema [2]: -50% | change in MPO for TPA model [2]: -54

SMILES: COc1ccc2c(c1)c(CC(=O)O)c(C)n2C(=O)c1ccc(Cl)cc1 [indomethicin]
effect on CoA-IT activity (CoA-IT; at concentrations up to 100 μM): no effect

SMILES: COc1ccc2cc([C@H](C)C(=O)O)ccc2c1 [naproxen]
effect on CoA-IT activity (CoA-IT; at concentrations up to 100 μM): no effect

SMILES: CCN(CC)CCCC(C)Nc1c2ccc(Cl)cc2nc2ccc(OC)cc12 (centres unmarked) [quinacrine]
effect on CoA-IT activity (CoA-IT; at concentrations up to 500 μM): no effect

SMILES: CC(=O)O[C@H]1C[C@@H]2[C@@]3(C)CCCC(C)(C)[C@@H]3CC[C@@]2(C)[C@@H]2CC=C(C=O)[C@H](C=O)[C@@]12C [scalaradial]
AA % change in edema [1]: -11%
